tested on: HCT116; test: cells; design: 2-deoxyglucose uptake inhibition, semi-automated resazurin/diaphorase fluorescence read-out of 2DG6P; conditions: Homo sapiens, HCT-116, 0.5 h; 2DG uptake
Method: Resazurin-based 2DG uptake assay (semi-automated high throughput) All buffers, reagents and steps were identical with those described for the manual screening Washing and [compound left out] addition steps were done using an automated cell washer or a multidrop device, respectively. Screening was performed in a 384-well plates. 15,000 HCT116 cells/well seeded into 384-well black-walled, clear bottomed plates (CellBIND, Corning) and incubated overnight. Compounds were added at 30 µM (final concentration for screening or serial dilutions staring from 30 µM for IC50 determinations) from DMSO stocks using the acoustic nanoliter dispenser ECHO 520. Fluorescence intensity was read from the bottom with a SpectraMax Paradigm Multi-Mode Microplate Reader (Molecular devices) using SUPPORTING INFORMATION 259 control (which was set to 100 %) and cells without 2DG (set to 0 %) using Graph Pad Prism 5 or 6 software and IC50 values were determined using a four-parameter fit. The observed difference in the obtained IC50 values for Glupin in the automated screening vs. manually performed assay is most likely attributed to the minituarization that is required for high-troughput screening and usually requires different plate format (384 vs. 96-well plates) and different cell number. In this case, the automated assay was performed in 384-well plates (vs. 96-well plates for the manual assay) with 15,000 cells per well (vs. 40,000 cells per well in the 96-well plates). For kinetic measurements, 15,000 cells were seeded into black CellBIND 384-well plates (Corning) and allowed to attach overnight. Then, the plates were washed 3X with KRB buffer containing 0.1%BSA and treated with different concentrations of 2DG (0-60mM) and Glupin (0-1µM) for 30s to 30min. The uptake was determined using the resazurin/diaphorase system as described above. 2DG uptake was stopped by aspirating the 2DG solution followed by quick wash with ice-cold KRB buffer (0.1 % BSA). Km and Vmax were determined by fitting the data according to Michaelis-Menten using non-linear fitting. The glucose uptake assay monitored the inhibition of 2‐deoxyglucose (2DG) uptake as described by Yamamoto et al.25 Briefly, 2DG uptake is determined by quantification of the 2DG‐6‐phosphate (2DG6P) that accumulates inside the cells by using the diaphorase‐resazurin/‐resorufin system (see Figure S7 a).

IC50 | Compound
28 ± 2 µM | CCOC(=O)n1c2c(c3ccccc31)CC1CC2C(OC)CN1C(=O)c1cccnc1SC (racemic) [5p, (±)-ethyl 5-methoxy-3-(2-(methylthio)nicotinoyl)-3,4,5,6-tetrahydro-1H-2,6-methanoazocino[5,4-b]indole-7(2H)-carboxylate]
8.4 ± 3.6 µM | CCOC(=O)CCn1c2c(c3ccccc31)CC1CC2C(OC)CN1C(=O)c1cccnc1SC (racemic) [5q, (±)-ethyl 3-(5-methoxy-3-(2-(methylthio)nicotinoyl)-3,4,5,6-tetrahydro-1H-2,6-methanoazocino[5,4-b]indol-7(2H)-yl)propanoate]
2.3 ± 0.8 µM | CCOC(=O)Cn1c2c(c3ccccc31)CC1CC2C(OC)CN1C(=O)c1cccnc1 (racemic) [5t, (±)-Ethyl 2-(5-methoxy-3-nicotinoyl-3,4,5,6-tetrahydro-1H-2,6-methanoazocino[5,4-b]indol-7(2H)-yl)acetate]
0.54 ± 0.16 µM | CCOC(=O)Cn1c2c(c3ccccc31)CC1CC2C(OC)CN1C(=O)c1cccnc1F (racemic) [5u, (±)-Ethyl 2-(3-(2-fluoronicotinoyl)-5-methoxy-1,2,3,4,5,6-hexahydro-7H-2,6-methanoazocino[5,4-b]indol-7-yl)acetate]
0.23 ± 0.05 µM | CCOC(=O)Cn1c2c(c3ccccc31)CC1CC2C(OC)CN1C(=O)c1cccnc1OC (racemic) [5v, (±)-Ethyl 2-(5-methoxy-3-(2-methoxynicotinoyl)-1,2,3,4,5,6-hexahydro-7H-2,6-methanoazocino[5,4-b]indol-7-yl)acetate]
0.12 ± 0.03 µM | CCOC(=O)Cn1c2c(c3ccccc31)CC1CC2C(OC)CN1C(=O)c1cccnc1C(F)(F)F (racemic) [5w, (±)-Ethyl 2-(5-methoxy-3-(2-(trifluoromethyl)nicotinoyl)-1,2,3,4,5,6-hexahydro-7H-2,6-methanoazocino[5,4-b]indol-7-yl)acetate]
6.7 ± 1.6 µM | CCOC(=O)Cn1c2c(c3ccccc31)CC1CC2C(OC)CN1C(=O)c1c(C(F)(F)F)ccnc1SC (racemic) [5x, (±)-Ethyl 2-(5-methoxy-3-(2-(methylthio)-4-(trifluoromethyl)nicotinoyl)-1,2,3,4,5,6-hexahydro-7H-2,6-methanoazocino[5,4-b]indol-7-yl)acetate]
14 ± 4 µM | CCOC(=O)Cn1c2c(c3ccccc31)CC1CC2C(OC)CN1C(=O)c1cc(C(F)(F)F)cnc1SC (racemic) [5y, (±)-Ethyl 2-(5-methoxy-3-(2-(methylthio)-5-(trifluoromethyl)nicotinoyl)-1,2,3,4,5,6-hexahydro-7H-2,6-methanoazocino[5,4-b]indol-7-yl)acetate]
0.12 ± 0.02 µM | C=CCOC1CN(C(=O)c2cccnc2SC)C2Cc3c(n(CC(=O)OCC)c4ccccc34)C1C2 (racemic) [5z, (±)-Ethyl 2-(5-(allyloxy)-3-(2-(methylthio)nicotinoyl)-1,2,3,4,5,6-hexahydro-7H-2,6-methanoazocino[5,4-b]indol-7-yl)acetate]
0.055 ± 0.017 µM | CCOC(=O)Cn1c2c(c3ccccc31)CC1CC2C(OC)CN1C(=O)c1cccnc1SC (racemic) [(±)-Glupin]
16 ± 1 µM | CNC(=O)Cn1c2c(c3ccccc31)CC1CC2C(OC)CN1C(=O)Cc1cccs1 (centres unmarked) [5au]
> 30 µM | CNC(=O)Cn1c2c(c3ccccc31)CC1CC2C(OC)CN1C(=O)c1cnccn1 (centres unmarked) [5av]
2 ± 0.4 µM | CCOC(=O)Cn1c2c(c3ccccc31)CC1CC2C(OC)CN1C(=O)c1cnccn1 (centres unmarked) [5aw]
> 30 µM | COC1CN(C(=O)c2cnccn2)C2Cc3c(n(CC(N)=O)c4ccccc34)C1C2 (centres unmarked) [5ax]
> 30 µM | CNC(=O)Cn1c2c(c3ccccc31)CC1CC2C(OC)CN1C(=O)N1CCOCC1 (centres unmarked) [5ay]
> 30 µM | CNC(=O)Cn1c2c(c3ccccc31)CC1CC2C(OC)CN1C(=O)Nc1cccc(C(F)(F)F)c1 (centres unmarked) [5az]
> 30 µM | CCOC(=O)Cn1c2c(c3cc(C(=O)OCC)ccc31)CC1CC2C(OC)CN1C(=O)c1cccnc1SC (centres unmarked) [5i, Ethyl 7-(2-ethoxy-2-oxoethyl)-5-methoxy-3-(2-(methylthio)nicotinoyl)-2,3,4,5,6,7-hexahydro-1H-2,6-methanoazocino[5,4-b]indole-10-carboxylate]
1.45 ± 0.6 µM | CNC(=O)Cn1c2c(c3ccccc31)CC1CC2C(OC)CN1C(=O)c1cccnc1SC (centres unmarked) [5m]
3.16 µM | CCOC(=O)Cn1c2c(c3ccccc31)CC1CC2C(OC)CN1C(=O)N1CCOCC1 (centres unmarked) [5r]
3.4 ± 0.3 µM | CCOC(=O)Cn1c2c(c3ccccc31)CC1CC2C(OC)CN1C(=O)c1ccco1 (centres unmarked) [5s]

Source: PMC6900016, “Synthesis of Indomorphan Pseudo‐Natural Product Inhibitors of Glucose Transporters GLUT‐1 and ‐3” (Angewandte Chemie (International Ed. in English), 2019)
